The source of these data is ChEMBL document CHEMBL5113408, “Design, synthesis and antitumour activity of novel 5(6)-amino-benzimidazolequinones containing a fused morpholine” (Eur J Med Chem, 2022).

pIC50: −log10 of the molar value.

Holding throughout (type): functional, cell-based
In one assay the test system is MGC-803. The assay can be described thus: Antiproliferative activity against human MGC-803 cells assessed as inhibition of cell growth by SRB assay.
The next assay deals with HeLa. Put plainly: Antiproliferative activity against human HeLa cells assessed as inhibition of cell growth by SRB assay. In general terms: The SRB assay estimates cell density from bound dye.
The test system of a further assay is MCF7. Put plainly: Antiproliferative activity against human MCF7 cells assessed as inhibition of cell growth by SRB assay.
A further assay concerns ECa-109 cell line. The assay can be described thus: Antiproliferative activity against human EC109 cells assessed as inhibition of cell growth by SRB assay.

With `O=C1C(NC2CC2)=CC(=O)c2c1nc1n2[C@H]2OC[C@@H](O)[C@H]2OC1`, the figures for the negative-log IC50 (pIC50) with MGC-803, in the assay on HeLa and in the assay with MCF7 were less than 5.40, less than 4.80 and less than 4.80, respectively.
Take `O=C1C(Nc2ccccc2F)=CC(=O)c2c1nc1n2[C@H]2OC[C@@H](O)[C@H]2OC1`: the pIC50 (as a rule, −log10 of the IC50, conventionally taken in molar units) with MGC-803 is 5.70; in the assay on HeLa it was 5.01; with MCF7, less than 5.40; in the assay on ECa-109 cell line, 5.58.
The matching figures for `CCc1ccc(NC2=CC(=O)c3nc4n(c3C2=O)[C@H]2OC[C@@H](O)[C@H]2OC4)cc1`: 5.89, 5.40, 6.02 and 5.51.
For `COc1ccccc1NC1=CC(=O)c2nc3n(c2C1=O)C[C@@H]([C@H](O)CO)OC3`, in that order: 5.18, 5.19, less than 4.80 and less than 4.80.
For `O=C1C=C(NC2CCCCC2)C(=O)c2c1nc1n2[C@H]2OC[C@@H](O)[C@H]2OC1`, in that order: less than 5.10, less than 4.80, less than 5.10 and less than 4.80.
For `CCCc1ccc(NC2=CC(=O)c3nc4n(c3C2=O)[C@H]2OC[C@@H](O)[C@H]2OC4)cc1`, the negative-log IC50 (pIC50) in the assay on MGC-803 was 5.81; with HeLa, 5.30; in the assay with MCF7, 5.33; in the assay on ECa-109 cell line it was less than 5.40.
For `O=C1C=C(Nc2cccc(F)c2)C(=O)c2c1nc1n2C[C@@H]([C@H](O)CO)OC1`, in that order: 5.35, 5.18, less than 4.80 and 5.10.
For `CCOc1ccc(NC2=CC(=O)c3c(nc4n3[C@H]3OC[C@@H](O)[C@H]3OC4)C2=O)cc1`, in that order: 5.68, 4.84, less than 5.40 and less than 5.40.
The matching figures for `COc1ccc(NC2=CC(=O)c3c(nc4n3[C@H]3OC[C@@H](O)[C@H]3OC4)C2=O)cc1`: 5.67, less than 5.10, 5.35 and 5.47.
With `O=C1C=C(Nc2ccc(I)cc2)C(=O)c2c1nc1n2C[C@@H]([C@H](O)CO)OC1`, the negative-log IC50 (pIC50) in the assay with MGC-803 was 5.49; in the assay on HeLa it was 5.44; with MCF7, 5.11; in the assay on ECa-109 cell line, 5.24.
The matching figures for `O=C1C=C(Nc2ccc(C(F)(F)F)cc2)C(=O)c2c1nc1n2C[C@@H]([C@H](O)CO)OC1`: 5.19, 5.22, 4.95 and 5.17.
Turning to `COc1cccc(NC2=CC(=O)c3nc4n(c3C2=O)C[C@@H]([C@H](O)CO)OC4)c1`, the negative logarithm of the IC50 (pIC50) was 5.03 with MGC-803, 5.08 in the assay on HeLa, less than 4.80 with MCF7 and less than 4.80 in the assay with ECa-109 cell line.
With `CCc1ccc(NC2=CC(=O)c3nc4n(c3C2=O)C[C@@H]([C@H](O)CO)OC4)cc1`, the pIC50 in the assay with MGC-803 was 5.54; in the assay on HeLa it was 5.62; in the assay with MCF7, 5.17; in the assay with ECa-109 cell line, 5.31.
The matching figures for `O=C1C(NC2CCCCC2)=CC(=O)c2c1nc1n2[C@H]2OC[C@@H](O)[C@H]2OC1`: less than 5.10, less than 4.80, less than 4.80 and less than 4.80.
Take `O=c1[nH]cc(F)c(=O)[nH]1` [FLUOROURACIL]: the pIC50 with MGC-803 was 4.99; in the assay with HeLa, 4.61; in the assay with ECa-109 cell line it was 4.94.
Consider `CCN(CC)C1=CC(=O)c2c(nc3n2[C@H]2OC[C@@H](O)[C@H]2OC3)C1=O`, for which the pIC50 in the assay with MGC-803, with HeLa and in the assay on MCF7 was less than 4.80 throughout.
Consider `CCOc1ccc(NC2=CC(=O)c3c(nc4n3C[C@@H]([C@H](O)CO)OC4)C2=O)cc1`, for which the negative-log IC50 (pIC50) with MGC-803 is 5.46; with HeLa it was 5.13; with MCF7, 5.06; in the assay on ECa-109 cell line, 5.11.
For the compound `CCOc1ccc(NC2=CC(=O)c3nc4n(c3C2=O)[C@H]2OC[C@@H](O)[C@H]2OC4)cc1`, the negative-log IC50 (pIC50) with MGC-803 is 5.95; with HeLa, 5.51; with MCF7, 5.84; in the assay with ECa-109 cell line, 5.49.
With `O=C1C(NC2CC2)=CC(=O)c2c1nc1n2C[C@@H]([C@H](O)CO)OC1`, the negative logarithm of the IC50 (pIC50) in the assay with MGC-803, in the assay with HeLa, in the assay on MCF7 and in the assay with ECa-109 cell line was less than 4.80 each time.
Take `COc1ccc(NC2=CC(=O)c3nc4n(c3C2=O)C[C@@H]([C@H](O)CO)OC4)cc1`: the negative logarithm of the IC50 (pIC50) was 5.05 in the assay on MGC-803, 5.15 in the assay with HeLa, less than 4.80 in the assay with MCF7 and less than 4.80 with ECa-109 cell line.
With `CCCN(CCC)C1=CC(=O)c2c(nc3n2[C@H]2OC[C@@H](O)[C@H]2OC3)C1=O`, the pIC50 in the assay on MGC-803, in the assay with HeLa, in the assay with MCF7 and in the assay on ECa-109 cell line was less than 4.80 throughout.
In the case of `O=C1C=C(Nc2ccccc2)C(=O)c2c1nc1n2C[C@@H]([C@H](O)CO)OC1`, the pIC50 with MGC-803 is 5.09; in the assay with HeLa, 5.22; in the assay with MCF7 it was less than 4.80; in the assay on ECa-109 cell line, less than 4.80.
Regarding `COc1ccccc1NC1=CC(=O)c2c(nc3n2C[C@@H]([C@H](O)CO)OC3)C1=O`, the pIC50 in the assay on MGC-803 is 5.35; with HeLa, 5.05; in the assay with MCF7, 5.17; with ECa-109 cell line, 5.12.
The matching figures for `COc1ccc(NC2=CC(=O)c3c(nc4n3C[C@@H]([C@H](O)CO)OC4)C2=O)cc1`: 5.17, 5.09, 4.94 and 4.97.
As for `CCCc1ccc(NC2=CC(=O)c3c(nc4n3C[C@@H]([C@H](O)CO)OC4)C2=O)cc1`, the pIC50 was 5.33 in the assay with MGC-803, 5.21 in the assay with HeLa, 5.03 in the assay on MCF7 and 5.29 in the assay on ECa-109 cell line.
For `O=C1C(Nc2ccc(Br)cc2)=CC(=O)c2c1nc1n2C[C@@H]([C@H](O)CO)OC1`, in that order: 5.56, 5.10, 5.30 and 5.45.
The matching figures for `O=C1C(Nc2ccccc2)=CC(=O)c2c1nc1n2C[C@@H]([C@H](O)CO)OC1`: 5.33, 5.05, 5.16 and 5.08.
For `O=C1C(Nc2cccc(F)c2)=CC(=O)c2c1nc1n2[C@H]2OC[C@@H](O)[C@H]2OC1`, in that order: 5.83, less than 5.10, less than 5.40 and 5.63.
For `O=C1C=C(Nc2ccc(C(F)(F)F)cc2)C(=O)c2c1nc1n2[C@H]2OC[C@@H](O)[C@H]2OC1`, the negative-log IC50 (pIC50) was 5.55 in the assay with MGC-803, less than 5.10 in the assay on HeLa, less than 5.40 in the assay on MCF7 and 5.26 in the assay with ECa-109 cell line.
The matching figures for `Cc1ccc(NC2=CC(=O)c3nc4n(c3C2=O)C[C@@H]([C@H](O)CO)OC4)cc1C`: 5.59, 5.35, 5.20 and 5.17.
The matching figures for `O=C1C=C(Nc2ccccc2)C(=O)c2c1nc1n2[C@H]2OC[C@@H](O)[C@H]2OC1`: 5.76, 5.25, less than 5.40 and 5.30.
The matching figures for `CCc1ccc(NC2=CC(=O)c3c(nc4n3C[C@@H]([C@H](O)CO)OC4)C2=O)cc1`: 5.43, 5.34, 5.18 and 5.34.
Turning to `CCc1ccc(NC2=CC(=O)c3c(nc4n3[C@H]3OC[C@@H](O)[C@H]3OC4)C2=O)cc1`, the negative-log IC50 (pIC50) with MGC-803 was 5.95; with HeLa it was 5.19; in the assay with MCF7 it was 5.05; in the assay with ECa-109 cell line it was less than 5.40.
The matching figures for `O=C1C=C(NCc2ccccc2)C(=O)c2c1nc1n2[C@H]2OC[C@@H](O)[C@H]2OC1`: 5.57, less than 5.10, less than 5.10 and less than 5.10.
For `CCCc1ccc(NC2=CC(=O)c3nc4n(c3C2=O)C[C@@H]([C@H](O)CO)OC4)cc1`, in that order: 5.44, 5.48, 5.23 and 5.16.
Regarding `O=C1C=C(N2CCCCC2)C(=O)c2c1nc1n2[C@H]2OC[C@@H](O)[C@H]2OC1`, the negative-log IC50 (pIC50) was less than 5.10 in the assay with MGC-803, less than 4.80 in the assay with HeLa, less than 5.10 in the assay on MCF7 and less than 5.10 with ECa-109 cell line.
With `O=C1C(Nc2ccc(I)cc2)=CC(=O)c2c1nc1n2[C@H]2OC[C@@H](O)[C@H]2OC1`, the negative logarithm of the IC50 (pIC50) is 5.67 in the assay on MGC-803, 5.40 in the assay with HeLa, 5.41 in the assay with MCF7 and 5.60 in the assay with ECa-109 cell line.
For `O=C1C(N2CCOCC2)=CC(=O)c2c1nc1n2[C@H]2OC[C@@H](O)[C@H]2OC1`, the pIC50 in the assay on MGC-803 is less than 5.40; in the assay on HeLa it was less than 4.80; with MCF7, less than 4.80.
`O=C1C(N2CCC2)=CC(=O)c2c1nc1n2[C@H]2OC[C@@H](O)[C@H]2OC1`: the negative-log IC50 (pIC50) in the assay with MGC-803, with HeLa, in the assay with MCF7 and in the assay with ECa-109 cell line was less than 4.80 throughout.
In the case of `O=C1C(Nc2ccccc2)=CC(=O)c2c1nc1n2[C@H]2OC[C@@H](O)[C@H]2OC1`, the pIC50 in the assay on MGC-803 was 5.74; in the assay on HeLa, less than 5.10; in the assay with MCF7, less than 5.40; in the assay on ECa-109 cell line, 5.45.
As for `CN(C)C1=CC(=O)c2c(nc3n2[C@H]2OC[C@@H](O)[C@H]2OC3)C1=O`, the pIC50 in the assay with MGC-803, in the assay with HeLa and in the assay on MCF7 was less than 4.80 in each case.
